Series [1] has as its target T1, SEB (Staphylococcus aureus, UniProt P01552). Also noted: species or system BALB/c mice. To be noted: mouse.
In series [2] the test system is IL2 and IFN-γ mRNA induced by SEB in human PBMC. The format is cell-based.
The subject of series [3] is IL10 and IL4 induced by SEB in human PBMC. In kind it is cell-based.
The test system of series [4] is IL2 and IFN-γ mRNA in human PBMC. The format is cell-based.
Series [5] deals with IL2 and IFN-γ mRNA induced by αCD28, αCD3, sB7-2 in human PBMC. In kind it is cell-based.
Series [6] relates to IL10 in human PBMC. The format is cell-based.
The target of series [7] is T2, sCD28 (Homo sapiens, UniProt P10747).
T2 construct: comprise the extracellular 37-162, 19-152, 21-141, 24-167 and 20-239 amino acid, respectively, of the mature human ligands domain; purchased R&D Systems 342-CD; host or cells: mouse myeloma NS0 cells
The format is binding.

The target in series [8] is T2, sCD28. Briefly: ELISA: binding of anti-CD28 to immobilized sCD28 in presence of antagonist peptide. The following applies: 1,000-fold diluted anti-CD28, p14A from 0.1 μg per ml. The protocol: An amount of 250 ng sCD28 was immobilized on an ELISA microtiter plate and binding of anti-CD28 at the two indicated dilutions (corresponding to 250 and 125 ng/ml, respectively) was measured by use of a secondary antibody coupled to alkaline phosphatase, recording absorbency at 450 nm. p14A was either absent (Control) or present at the indicated concentrations. Abbreviations: bin. (binding), Un. (units), cont. (control), ml (milliliter), μg (microgram), α (anti).
Yet another assay was devised to show a direct interaction between antagonist peptide and sCD28. The inventors developed an enzyme-linked immune sorbent assay (ELISA) in which sCD28 is immobilized in the wells of a microtiter ELISA plate and binding of anti-CD28 is measured by use of a secondary antibody coupled to alkaline phosphatase. It is seen in FIG. 16 that binding of 1,000-fold diluted anti-CD28 to the plate was inhibited by p14A even at a concentration of only 0.1 μg per ml. […] Thus, antagonist peptide p14A is a powerful inhibitor of the interaction between anti-CD28 and sCD28.
On the technique in general: ELISA stands for enzyme-linked immunosorbent assay.

Series [9] concerns the target T3, soluble CD28 (sCD28) (Homo sapiens, UniProt P10747).
T3 construct: comprise the extracellular 37-162, 19-152, 21-141, 24-167 and 20-239 amino acid, respectively, of the mature human ligands domain; purchased R&D Systems 342-CD; host or cells: mouse myeloma NS0 cells
The format is binding.

In series [10] the target is T4, sCD28/sB7-2 (Homo sapiens, UniProt P10747).
T4 construct: comprise the extracellular 37-162, 19-152, 21-141, 24-167 and 20-239 amino acid, respectively, of the mature human ligands domain; purchased R&D Systems 342-CD (sCD28); host or cells: mouse myeloma NS0 cells
The format is binding.

The conditions of series [11]: mouse, in vivo.
Series [12] concerns p14A. The format is binding.
Series [13] deals with T1, SEB.
For series [14], the target named is T1, SEB. This is another data set of the same source.
The test system of series [15] is IL2 and IFN-γ mRNA induced by TSST-1 in human PBMC. The format is cell-based.

The record followed here is patent US8535672B2, “Broad-spectrum in-vivo effective superantigen toxin antagonists based on the interaction between CD28 and the superantigen and uses thereof” (Yissum Research Development of the Hebrew University of …, priority 2003, dated 2013).

“Also recorded” adds a separate entry of the source. Non-standard residues stand in square brackets, D forms with d. No end group written: not given here.

With YESQLCCQL (Synthetic peptide p1TC), the “protection of mice from lethal SEB challenge” value (shortened to “protection of mice”) in series [1] (in vivo) is “protected mice from lethal challenge”. The “antagonism of SEB-mediated induction of IL2 and IFN-γ mRNA” value (from here on “antagonism”) in series [2] is reported as “inhibited”.

As to YVIDPEPCP (Synthetic peptide p1TB), the “molar excess (ratio) over SEB at which protective in vivo” value (from here on “molar excess (ratio) over SEB”) in series [1] was 3.6 fold. Also, in [1] (in vivo), the “protection of mice” value is given as “protected mice from lethal challenge”. In series [3], the “effect on SEB-mediated induction of IL10 / IL4 (Th2 response)” value (from here on “effect … of IL10 / IL4 (Th2 response)”) is “left induction of IL10 intact”. Also, the “antagonism” value in series [2] is listed as “inhibited”.

Regarding AAAAAAAHVKGKHLCP [pTA], the “induction of Th1 cytokine mRNA by the substance alone (agonist activity)” value (from here on “induction of Th1 cytokine mRNA”) in [4] was “Neither pTA nor AAAAAAAAAAMYPPPY (SEQ ID NO: 7) alone were active as inducer”. For the same substance, the “effect on induction of IL2/IFN-γ mRNA by αCD28 alone” value in series [5] is reported as “inhibited”. Besides, the “effect … of IL10 / IL4 (Th2 response)” value in series [3] is “left the induction of IL10 and IL4 intact”. Moreover, in series [2], the “antagonism” value was “blocked”.

As to “daV Q Y N K K K A T V Q E L Dda ([dA]VQYNKKKATVQELD[dA]) [p14A]”, in series [6], the “effect on induction of IL10 by αCD28/αCD3” value is “resistant” and the “effect on induction of IL-10 by sB7-2/anti-CD3” value was “largely resistant”. For the same substance, in series [1], the “molar excess (ratio) over SEB” value was determined as 12 fold. The “protection from lethal SEB challenge” value in series [1] (in vivo) was 70%. In [5], the “effect on induction of IFN-γ mRNA by anti-CD3 alone” value is given as “did not inhibit”, the “effect on induction of IFN-γ mRNA by anti-CD3 with sB7-2” value is listed as “abrogated”, the “effect on induction of IFN-γ mRNA by sB7-2 alone” value is “shifted the induction by sB7-2 alone to earlier times; also recorded: stimulated induction significantly” and the “effect on induction of IL2/IFN-γ mRNA by αCD28 alone” value is given as “blocked”. In addition, in [5], the “effect on induction of IL2/IFN-γ mRNA by αCD28 and αCD3 combined” value is “eliminated virtually in full”. The “effect … of IL10 / IL4 (Th2 response)” value in [3] was “left induction of the Th2-type cytokines IL-10 and IL-4 intact”. The “effect on plasmon resonance signal for binding of anti-CD28 to sCD28” value in series [7] is listed as “reduced”. Also, the “effect on binding of anti-CD28 to sCD28 (ELISA)” value in series [8] is “inhibited”. For the same substance, in series [9], the “binding to CD28 (SPR)” value is recorded as “bind directly to CD28”. Moreover, the “effect on plasmon resonance signal for binding of sCD28 to sB7-2” value in series [10] is reported as “enhanced significantly”. In addition, the “antagonism” value in series [2] is recorded as “blocked”.

For the substance WHAHPHKKPVVA [pd7], the “induction of Th1 cytokine mRNA” value in series [4] was “lacked superantigen agonist activity”. The “mice surviving SEB challenge / group” value in [1] (in vivo) was 4/10. Moreover, the “effect … of IL10 / IL4 (Th2 response)” value in [3] is given as “failed to inhibit induction of IL10”. Moreover, the “toxicity of peptide alone” value in series [11] is given as “lacked detectable toxicity”. In addition, the “antagonism” value in series [2] is given as “inhibited”.

For “sCD28: recombinant soluble CD28: extracellular domain of human CD28 fused to His6-tagged Fc of human IgG (R&D Systems 342-CD)”, in series [12], the “inhibition of anti-p14A Ab binding to p14A (ELISA)” value was “over 90%”. In addition, the “induction of Th1 cytokine mRNA” value in series [4] is recorded as “did not induce IFN-γ mRNA”. Further, in series [13], the “inhibition of binding of anti-SEB Ab to SEB” value was 84% and the “reduction of anti-SEB binding to SEB” value is on record as “about 5 fold”. Moreover, the “competition of anti-SEB Ab binding to SEB (ELISA)” value in [14] is recorded as “about 75%”. In series [5], the “effect on induction of IL2/IFN-γ mRNA by αCD28 alone” value is recorded as “inhibited”. In [2], the “antagonism” value is on record as “dose-dependent manner”; the “inhibition of SEB induction of IFN-γ mRNA” value is “about twenty fold”; the “inhibition of SEB induction of IL-2 mRNA” value was 3.5 fold.

In the case of IHKPHHHRTPLW (Synthetic peptide pf8), the “antagonism” value in [2] was “inhibited”.

Take SHFTHNRHGHST (Synthetic Peptide pe12): the “induction of Th1 cytokine mRNA” value in series [4] is recorded as “lacked superantigen agonist activity”. In addition, in series [1], the “molar excess (ratio) over SEB” value is recorded as “about equimolar ratio”. Further, in series [1] (in vivo), the “mice surviving SEB challenge / group” value is on record as 8/10. Also, the “effect … of IL10 / IL4 (Th2 response)” value in series [3] is listed as “failed to inhibit induction of IL10”. Further, the “toxicity of peptide alone” value in [11] is recorded as “lacked detectable toxicity”. Also, the “antagonism” value in [2] was “strongly inhibited”.

Consider PAVVLASS (Synthetic peptide p2TB), for which the “molar excess (ratio) over SEB” value in series [1] came to 2 fold. In series [1] (in vivo), the “protection of mice” value is given as “protected mice from lethal challenge”. Moreover, the “effect … of IL10 / IL4 (Th2 response)” value in series [3] is listed as “left induction of IL10 intact”. In addition, the “antagonism” value in series [2] is given as “inhibited”.

As to “pSEB(41-61): a peptide that lacks antagonist activity (IDQFLYFDLIYSIKDTKLGNY; UniProt P01552 68-88, looked up, fragment) [reference compound]”, the “effect on plasmon resonance signal for binding of sCD28 to sB7-2” value in series [10] was “only slightly”.

In the case of FHKHKNPGSPII [pc3], in series [4], the “induction of Th1 cytokine mRNA” value is on record as “lacked superantigen agonist activity”. For the same substance, in series [1], the “molar excess (ratio) over SEB” value was “about equimolar ratio”. In series [1] (in vivo), the “mice surviving SEB challenge / group” value is reported as 7/10. In addition, in [3], the “effect … of IL10 / IL4 (Th2 response)” value is “failed to inhibit induction of IL10”. The “toxicity of peptide alone” value in [11] was “lacked detectable toxicity”. For the same substance, the “antagonism” value in series [2] is recorded as “inhibited”.

In the case of “CHGHLVPKK (Synthetic scrambled control peptide p1TAsc) [scrambled form of p1TA, reference compound]”, the “protection of mice” value in series [1] (in vivo) was “failed to provide protection”. In addition, the “antagonism” value in series [2] is recorded as “lacked antagonist activity”.

With GEINGSAN (Synthetic peptide p2TC), the “protection of mice” value in [1] (in vivo) is on record as “protected mice from lethal challenge”. The “antagonism” value in [2] is given as “inhibited”.

As for “C-EKAKYTQLVKDN-C (CEKAKYTQLVKDNC; terminal cysteines; Sequence of artificial peptide p12Csc) [randomly scrambled p12C, reference compound]”, in series [9], the “binding to CD28 (SPR)” value is reported as “failed to bind CD28”.

In the case of HVKGKHLCP (Synthetic peptide p1TA), the “molar excess (ratio) over SEB” value in series [1] stood at 3.6 fold. For the same substance, the “mice surviving SEB challenge / group” value in [1] (in vivo) is reported as 7/10. Also, in [11], the “concentration without detectable toxicity, relative to that needed for protection” value came out at 25 fold and the “toxicity of peptide alone” value is on record as “lacked detectable toxicity”. In addition, in series [2], the “antagonism” value is given as “antagonized”. The “inhibition of induction of IL2 and IFN-γ mRNA by TSST-1” value in series [15] was “inhibited”.

For SPMLVAYD [p2TA], the “molar excess (ratio) over SEB” value in series [1] is recorded as 0.8 fold. Also, in series [1] (in vivo), the “mice surviving SEB challenge / group” value is reported as 8/10. In series [11], the “concentration without detectable toxicity, relative to that needed for protection” value is on record as 125 fold and the “toxicity of peptide alone” value is reported as “lacked detectable toxicity”. In addition, the “antagonism” value in [2] was “antagonized”. In series [15], the “inhibition of induction of IL2 and IFN-γ mRNA by TSST-1” value is listed as “inhibited”.

As to “AAAAAAAAAAMYPPPY [control peptide containing another motif in the sCD28 molecule, reference compound]”, in series [4], the “induction of Th1 cytokine mRNA” value was “Neither pTA nor AAAAAAAAAAMYPPPY (SEQ ID NO: 7) alone were active as inducer”. In series [2], the “antagonism” value was “did not show antagonist activity”.

Take APMYHKHRLEKH (Synthetic peptide pe6): the “antagonism” value in [2] is reported as “inhibited”.
